pIC50: −log10 of the molar value. Like-named read-outs stand apart in the source and are kept apart here.

These results are taken from patent US9884849B2, “Fluorinated benzofuranyl-pyrimidine derivatives containing a sulfoximine group” (Bayer Pharma Aktiengesellschaft, priority 2014, dated 2018).

The target in data set [1] is T1, CDK9/CycT1 (Homo sapiens, UniProt P50750).
T1 construct: Recombinant full-length His-tagged human CDK9 and CycT1; His; purchased Invitrogen PV4131; host or cells: insect cells
T1 sequence (P50750 whole entry): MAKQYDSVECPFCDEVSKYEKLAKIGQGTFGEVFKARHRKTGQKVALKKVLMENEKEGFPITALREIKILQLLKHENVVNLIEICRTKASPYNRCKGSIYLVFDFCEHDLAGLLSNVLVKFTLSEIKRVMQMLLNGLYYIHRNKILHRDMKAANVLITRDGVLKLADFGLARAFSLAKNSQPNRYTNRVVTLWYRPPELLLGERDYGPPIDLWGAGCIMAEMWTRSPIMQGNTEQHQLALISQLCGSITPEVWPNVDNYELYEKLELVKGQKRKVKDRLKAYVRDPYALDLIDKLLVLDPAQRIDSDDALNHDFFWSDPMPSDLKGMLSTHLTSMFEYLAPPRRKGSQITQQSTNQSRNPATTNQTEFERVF
T1 sequence (O60563 whole entry partner): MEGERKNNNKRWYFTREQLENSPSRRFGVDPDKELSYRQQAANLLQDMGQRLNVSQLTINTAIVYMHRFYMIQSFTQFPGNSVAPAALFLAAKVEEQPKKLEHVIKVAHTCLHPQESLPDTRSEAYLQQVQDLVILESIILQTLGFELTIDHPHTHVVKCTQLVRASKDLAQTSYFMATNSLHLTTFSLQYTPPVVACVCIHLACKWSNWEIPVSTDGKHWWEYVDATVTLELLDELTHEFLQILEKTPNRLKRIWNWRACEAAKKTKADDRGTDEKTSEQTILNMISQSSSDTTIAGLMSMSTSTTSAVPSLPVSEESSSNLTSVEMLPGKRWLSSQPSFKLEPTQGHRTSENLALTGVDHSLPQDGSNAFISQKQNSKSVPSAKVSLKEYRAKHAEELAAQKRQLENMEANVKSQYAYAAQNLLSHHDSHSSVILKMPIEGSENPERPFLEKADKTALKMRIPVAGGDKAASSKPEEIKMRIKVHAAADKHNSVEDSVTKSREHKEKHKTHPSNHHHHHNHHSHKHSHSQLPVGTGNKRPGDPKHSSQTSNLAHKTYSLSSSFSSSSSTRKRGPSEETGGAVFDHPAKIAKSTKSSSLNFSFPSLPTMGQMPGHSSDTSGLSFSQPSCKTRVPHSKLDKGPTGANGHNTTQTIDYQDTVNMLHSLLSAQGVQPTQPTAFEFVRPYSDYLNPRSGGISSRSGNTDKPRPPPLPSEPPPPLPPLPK
The data set can be described thus: CDK9/CycT1 kinase assay (Method 1a, TR-FRET). Format: biochemical. The following applies: 10 μM ATP; for Selectivity CDK9 over CDK2: IC50 (CDK2)/IC50 (CDK9): Methods 1a. and 2a. The text has this:
1a. CDK9/CycT1 Kinase Assay:
CDK9/CycT1-Inhibitory Activity of Compounds of the Present Invention was Quantified Employing the CDK9/CycT1 TR-FRET Assay as Described in the Following Paragraphs:
Recombinant full-length His-tagged human CDK9 and CycT1, expressed in insect cells and purified by Ni-NTA affinity chromatography, were purchased from Invitrogen (Cat. No PV4131). As substrate for the kinase reaction biotinylated peptide biotin-Ttds-YISPLKSPYKISEG (C-terminus in amid form) was used which can be purchased e.g. form the company JERINI Peptide Technologies (Berlin, Germany). For the assay 50 nl of a 100 fold concentrated solution of the test compound in DMSO was pipetted into a black low volume 384 well microtiter plate (Greiner Bio-One, Frickenhausen, Germany), 2 μl of a solution of CDK9/CycT1 in aqueous assay buffer [50 mM Tris/HCl pH 8.0, 10 mM MgCl2, 1.0 mM dithiothreitol, 0.1 mM sodium ortho-vanadate, 0.01% (v/v) Nonidet-P40 (Sigma)] were added and the mixture was incubated for 15 min at 22° C. to allow pre-binding of the test compounds to the enzyme before the start of the kinase reaction. Then the kinase reaction was started by the addition of 3 μl of a solution of adenosine-tri-phosphate (ATP, 16.7 μM=>final conc. in the 5 μl assay volume is 10 μM) and substrate (1.67 μM=>final conc. in the 5 μl assay volume is 1 μM) in assay buffer and the resulting mixture was incubated for a reaction time of 25 min at 22° C. The concentration of CDK9/CycT1 was adjusted depending of the activity of the enzyme lot and was chosen appropriate to have the assay in the linear range, typical concentrations were in the range of 1 μg/mL. The reaction was stopped by the addition of 5 μl of a solution of TR-FRET detection reagents (0.2 μM streptavidine-XL665 [Cisbio Bioassays, Codolet, France] and 1 nM anti-RB(pSer807/pSer811)-antibody from BD Pharmingen [#558389] and 1.2 nM LANCE EU-W1024 labeled anti-mouse IgG antibody [Perkin-Elmer, product no. AD0077]) in an aqueous EDTA-solution (100 mM EDTA, 0.2% (w/v) bovine serum albumin in 100 mM HEPES/NaOH pH 7.0).
The resulting mixture was incubated 1 h at 22° C. to allow the formation of complex between the phosphorylated biotinylated peptide and the detection reagents. Subsequently the amount of phosphorylated substrate was evaluated by measurement of the resonance energy transfer from the Eu-chelate to the streptavidine-XL. Therefore, the fluorescence emissions at 620 nm and 665 nm after excitation at 350 nm was measured in a HTRF reader, e.g. a Rubystar (BMG Labtechnologies, Offenburg, Germany) or a Viewlux (Perkin-Elmer). The ratio of the emissions at 665 nm and at […] was taken as the measure for the amount of phosphorylated substrate. The data were normalised (enzyme reaction without inhibitor=0% inhibition, all other assay components but no enzyme=100% inhibition).

For data set [2], the system named is MOLM-13 cells. The data set can be described thus: Proliferation assay MOLM-13 (Method 3). Format: cell-based, human. The conditions noted are these: MOLM-13, 72-hour exposure, Cell Titre-Glo, read-out: Inhibition of MOLM-13 cell proliferation IC50. The protocol:
Non-adherent MOLM-13 human acute myeloid leukemia cells (DSMZ ACC 554) were seeded at a density of 5,000 cells/well in a 96-well multititer plate in 100 μL of growth medium supplemented 10% fetal calf serum. After 24 hours, cell viability of one plate (zero-point plate) was determined with the Cell Titre-Glo Luminescent Cell Viability Assay (Promega), while 50 μL of test compound containing medium was added to the wells of the other plates (final concentrations in the range of 0.001-10 μM and DMSO controls; the final concentration of the solvent dimethyl sulfoxide was 0.5%). Cell viability was assessed after 72-hour exposure with the Cell Titre-Glo Luminescent Cell Viability Assay (Promega). IC50 values (inhibitory concentration at 50% of maximal effect) were determined by means of a 4 parameter fit on measurement data which were normalized to vehicle (DMSO) treated cells (=100%) and measurement readings taken immediately before compound exposure (=0%).

Data set [3] can be described thus: Caco-2 permeation assay (Method 4). Format: in vitro ADME. The following applies: human, 2 μM test compound; for efflux ratio at 2 h, 2 μM: Caco-2, pH 7.2, read-out: Efflux ratio (Papp B-A/Papp A-B); for Papp A→B at 2 h, 2 μM / Papp B→A at 2 h, 2 μM: Caco-2, 2 h incubation, pH 7.2; for Papp A→B at 2 h, 2 μM: read-out: Papp A-B (Mari); for Papp B→A at 2 h, 2 μM: read-out: Papp B-A (Mari). On the procedure:
4. Caco-2 Permeation Assay:
Caco-2 cells (purchased from DSMZ Braunschweig, Germany) were seeded at a density of 4.5×10^4 cells per well on 24 well insert plates, 0.4 μm pore size, and grown for 15 days in DMEM medium supplemented with 10% fetal bovine serum, 1% GlutaMAX (100×, GIBCO), 100 U/mL penicillin, 100 μg/mL streptomycin (GIBCO) and 1% non essential amino acids (100×). Cells were maintained at 37° C. in a humified 5% CO2 atmosphere. Medium was changed every 2-3 day. Before running the permeation assay, the culture medium was replaced by a FCS-free hepes-carbonate transport buffer (pH 7.2). For assessment of monolayer integrity the transepithelial electrical resistance (TEER) was measured. Test compounds were predissolved in DMSO and added either to the apical or basolateral compartment in final concentration of 2 μM in transport buffer. Before and after 2 h incubation at 37° C. samples were taken from both compartments. Analysis of compound content was done after precipitation with methanol by LC/MS/MS analysis. Permeability (Papp) was calculated in the apical to basolateral (A→B) and basolateral to apical (B→A) directions. The apparent permeability was calculated using following equation: Papp=(Vr/Po)(1/S)(P2/t)
Where Vr is the volume of medium in the receiver chamber, Po is the measured peak area or height of the test drug in the donor chamber at t=o, S the surface area of the monolayer, P2 is the measured peak area of the test drug in the acceptor chamber after 2 h of incubation, and t is the incubation time. The efflux ratio basolateral (B) to apical (A) was calculated by dividing the Papp B-A by the Papp A-B. In addition the compound recovery was calculated.

As for `CS(=N)(=O)Cc1cccc(Nc2ncc(F)c(-c3ccc(F)c4ccoc34)n2)c1` (racemic) [Example 4, (rac)-5-Fluoro-4-(4-fluoro-1-benzofuran-7-yl)-N-{3-[(S-methylsulfonimidoyl)-methyl]phenyl}-pyrimidin-2-amine], in data set [1], the pIC50 was 8.34 and the “Selectivity CDK9 over CDK2: IC50 (CDK2)/IC50 (CDK9)” value stood at 24. For the same compound, the pIC50 in data set [2] (Homo sapiens, MOLM-13, 72 h) was 6.97. In addition, in data set [3], the efflux ratio at 2 h, 2 μM turned out to be 0.57; the apical-to-basolateral permeability (Papp A→B) at 2 h, 2 μM stood at 18.3 ×10⁻⁶ cm/s; the basolateral-to-apical permeability (Papp B→A) at 2 h, 2 μM is 10.4 ×10⁻⁶ cm/s.
As to `CS(=N)(=O)Cc1cccc(Nc2ncc(F)c(-c3ccc(F)c4ccoc34)n2)c1` (single isomer, unassigned) [Example 6, 5-Fluoro-4-(4-fluoro-1-benzofuran-7-yl)-N-{3-[(S-methylsulfonimidoyl)-methyl]-phenyl}-pyrimidin-2-amine], in data set [1], the pIC50 is 8.59 and the “Selectivity CDK9 over CDK2: IC50 (CDK2)/IC50 (CDK9)” value was determined as 22. In addition, the pIC50 in data set [2] was 6.93. For the same compound, in data set [3], the efflux ratio at 2 h, 2 μM was determined as 0.51; the apparent permeability from apical to basolateral (Papp A→B) at 2 h, 2 μM worked out at 22.1 ×10⁻⁶ cm/s; the apparent permeability from basolateral to apical (Papp B→A) at 2 h, 2 μM came out at 11.3 ×10⁻⁶ cm/s.
